Experimental data published in ChEMBL document CHEMBL2311536 (J Med Chem, 2013).
pIC50, pKd: −log10 of the molar value. Calls of active or inactive are those of the source. The calls are words filed in the database; no cut-off is given here.

How the values were obtained:
Homo sapiens = species on record: Homo sapiens; assay: (§1) Displacement of 2OG from FIH (unknown origin) expressed in Escherichia coli at 400 uM
Egl nine homolog 1 [1] = biological target: T1, Egl nine homolog 1 (Homo sapiens, UniProt Q9GZT9); assay: Inhibition of human PHD2 catalytic domain (181 to 426) Mn2 expressed in Escherichia coli by NMR spectroscopic analysis
Target sequence in this assay (Q9GZT9 whole entry, the tested form may be a part): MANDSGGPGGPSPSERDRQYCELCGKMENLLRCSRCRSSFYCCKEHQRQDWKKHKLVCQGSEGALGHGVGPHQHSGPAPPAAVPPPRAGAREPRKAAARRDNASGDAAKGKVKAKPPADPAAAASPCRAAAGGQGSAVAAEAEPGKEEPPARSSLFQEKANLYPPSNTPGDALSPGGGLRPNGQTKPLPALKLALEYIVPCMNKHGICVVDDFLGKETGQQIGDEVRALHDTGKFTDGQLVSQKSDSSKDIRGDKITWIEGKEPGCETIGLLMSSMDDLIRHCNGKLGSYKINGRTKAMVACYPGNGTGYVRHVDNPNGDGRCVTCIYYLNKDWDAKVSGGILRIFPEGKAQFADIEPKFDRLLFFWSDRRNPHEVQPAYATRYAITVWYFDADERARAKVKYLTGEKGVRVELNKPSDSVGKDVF

Egl nine homolog 1 [2] = biological target: T1, Egl nine homolog 1; assay: Binding affinity to human PHD2 catalytic domain (181 to 426) Mn2 expressed in Escherichia coli by NMR spectroscopic analysis
Target sequence in this assay (Q9GZT9 whole entry, the tested form may be a part): as above

Egl nine homolog 1 [3] = biological target: T1, Egl nine homolog 1; assay: Displacement of [13C]-2OG from catalytic domain of PHD2 (181 to 426) (unknown origin) expressed in Escherichia coli
Target sequence in this assay (Q9GZT9 whole entry, the tested form may be a part): as above

[4] = biological target: T2, Lysine-specific demethylase 2A (Homo sapiens) (UniProt Q9Y2K7); assay: Displacement of 2OG from FBXL11 (1 to 517) (unknown origin) expressed in Escherichia coli at 800 uM
T2 sequence (whole entry): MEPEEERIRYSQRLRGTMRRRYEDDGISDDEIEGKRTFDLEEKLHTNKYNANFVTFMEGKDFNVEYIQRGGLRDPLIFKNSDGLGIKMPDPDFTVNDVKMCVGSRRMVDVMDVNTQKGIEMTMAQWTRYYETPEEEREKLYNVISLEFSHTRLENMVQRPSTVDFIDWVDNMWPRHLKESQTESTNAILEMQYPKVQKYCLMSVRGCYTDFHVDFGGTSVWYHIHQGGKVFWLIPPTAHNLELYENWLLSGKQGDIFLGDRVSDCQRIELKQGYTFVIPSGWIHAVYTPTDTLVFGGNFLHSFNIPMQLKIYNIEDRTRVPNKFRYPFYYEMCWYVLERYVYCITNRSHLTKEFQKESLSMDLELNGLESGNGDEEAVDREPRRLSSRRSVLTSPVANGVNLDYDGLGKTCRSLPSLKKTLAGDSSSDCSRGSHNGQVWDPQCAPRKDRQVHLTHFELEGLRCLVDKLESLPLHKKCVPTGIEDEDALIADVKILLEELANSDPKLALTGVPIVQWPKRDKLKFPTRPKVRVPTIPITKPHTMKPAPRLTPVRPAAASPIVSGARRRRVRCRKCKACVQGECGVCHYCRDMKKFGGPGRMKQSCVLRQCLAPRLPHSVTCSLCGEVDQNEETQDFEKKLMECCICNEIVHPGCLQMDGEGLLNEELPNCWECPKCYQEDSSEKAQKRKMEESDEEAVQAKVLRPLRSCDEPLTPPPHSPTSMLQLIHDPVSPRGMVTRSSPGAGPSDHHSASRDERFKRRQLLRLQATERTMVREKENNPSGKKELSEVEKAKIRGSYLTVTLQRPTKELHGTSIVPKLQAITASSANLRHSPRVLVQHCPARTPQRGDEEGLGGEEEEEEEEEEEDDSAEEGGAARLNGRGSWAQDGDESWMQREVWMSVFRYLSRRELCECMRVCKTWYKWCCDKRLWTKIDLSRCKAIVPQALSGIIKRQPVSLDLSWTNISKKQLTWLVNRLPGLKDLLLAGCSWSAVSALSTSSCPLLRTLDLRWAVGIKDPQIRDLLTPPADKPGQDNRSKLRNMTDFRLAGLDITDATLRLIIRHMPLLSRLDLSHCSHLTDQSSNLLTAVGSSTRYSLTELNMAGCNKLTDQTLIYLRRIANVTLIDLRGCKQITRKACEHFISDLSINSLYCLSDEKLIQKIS

Egl nine homolog 1 [5] = biological target: T1, Egl nine homolog 1; assay: Displacement of 2OG from catalytic domain of PHD2 (181 to 426) (unknown origin) Zn2 expressed in Escherichia coli at 400 uM
Target sequence in this assay (Q9GZT9 2-426 limits assumed): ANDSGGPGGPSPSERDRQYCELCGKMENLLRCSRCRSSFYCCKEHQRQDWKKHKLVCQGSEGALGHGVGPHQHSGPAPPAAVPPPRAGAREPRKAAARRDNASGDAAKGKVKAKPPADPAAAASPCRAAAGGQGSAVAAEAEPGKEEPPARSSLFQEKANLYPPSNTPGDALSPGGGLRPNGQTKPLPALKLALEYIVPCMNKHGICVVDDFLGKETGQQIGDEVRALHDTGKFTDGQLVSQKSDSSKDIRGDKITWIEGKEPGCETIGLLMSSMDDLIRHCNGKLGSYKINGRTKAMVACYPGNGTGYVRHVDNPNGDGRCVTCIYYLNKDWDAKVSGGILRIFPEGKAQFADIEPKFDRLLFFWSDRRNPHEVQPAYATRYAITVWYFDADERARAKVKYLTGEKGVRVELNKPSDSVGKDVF

[6] = Inhibition of human FIH catalytic domain Mn2 expressed in Escherichia coli by NMR spectroscopic analysis
[7] = Binding affinity to human FIH catalytic domain Mn2 expressed in Escherichia coli by NMR spectroscopic analysis
[8] = as §1; conditions: Homo sapiens
Egl nine homolog 1 [9] = biological target: T1, Egl nine homolog 1; assay: Inhibition of PHD2 (unknown origin)
Target sequence in this assay (Q9GZT9 whole entry, the tested form may be a part): as the sequence (Q9GZT9 whole entry, the tested form may be a part) above

Egl nine homolog 1 [10] = biological target: T1, Egl nine homolog 1; assay: Displacement of 2OG from catalytic domain of PHD2 (181 to 426) (unknown origin) Zn2 expressed in Escherichia coli at 150 uM
Target sequence in this assay (Q9GZT9 2-426 limits assumed): as the sequence (Q9GZT9 2-426 limits assumed) above

Question: For `O=C(O)CCC(=O)O`, which inhibition (Homo sapiens) is on record?
Answer: Its inhibition is “inactive”.

Question: With `O=C(O)Cc1cs/c(=N\C(=O)CS(=O)(=O)Cc2ccc3ccccc3c2)n1O` as the compound, how does the pIC50 (Egl nine homolog 1 [1]) read?
Answer: Its pIC50 is 7.70.

Question: And the pKd (Egl nine homolog 1 [2])?
Answer: Its pKd is 7.00.

Question: What about the pKd (Egl nine homolog 1 [3]) of the same compound?
Answer: The pKd was 6.96.

Question: What about the inhibition [4] of the same compound?
Answer: Its inhibition is 90%.

Question: With `O=C(O)CNC(=O)c1ccc(B(O)O)cn1` as the compound, how does the inhibition (Egl nine homolog 1 [5]) read?
Answer: Its inhibition is 50%.

Question: With `O=C(O)CNC(=O)c1nc(Cl)c2ccccc2c1O` as the compound, how does the pIC50 [6] read?
Answer: Its pIC50 is under 4.60.

Question: And the pKd [7]?
Answer: Its pKd is 3.85.

Question: What about the inhibition [8] of the same compound?
Answer: The inhibition was 55%.

Question: What about the inhibition [4] of the same compound?
Answer: The inhibition was “inactive”.

Question: For `O=C(O)CC(C(=O)O)C(O)C(=O)O` (stereo unspecified) [ISOCITRATE], which inhibition (Homo sapiens) is on record?
Answer: The inhibition was “inactive”.

Question: And the pIC50 (Egl nine homolog 1 [9])?
Answer: Its pIC50 is under 2.00.

Question: Which results are given for `O=C(O)c1ccc(O)c2ncccc12`?
Answer: pIC50 [6]: 4.70; pKd [7]: 4.52; inhibition [8]: 75%; inhibition [4]: 65%

Question: For `O=C(c1ccccc1)c1ccc(O)c(O)c1`, which inhibition (Egl nine homolog 1 [10]) is on record?
Answer: Its inhibition is “inactive”.

Question: With `O=C(O)CNC(=O)C(=O)O` [N-OXALYLGLYCINE] as the compound, how does the pIC50 [6] read?
Answer: Its pIC50 is 4.30.

Question: And the pKd [7]?
Answer: The pKd was 5.40.

Question: What about the inhibition [8] of the same compound?
Answer: Its inhibition is 85%.

Question: What about the inhibition [4] of the same compound?
Answer: The inhibition was 30%.

Question: Which inhibition [4] does the source give for `O=C(O)c1ccnc(C(=O)O)c1` here?
Answer: Its inhibition is 70%.

Question: Which inhibition (Egl nine homolog 1 [10]) does the source give for `Oc1ccccc1O` here?
Answer: The inhibition was “inactive”.

Question: With `O=C(O)CC(O)C(=O)O` (stereo unspecified) as the compound, how does the inhibition (Homo sapiens) read?
Answer: The inhibition was “inactive”.

Question: With `O=C(O)CC(O)(CC(=O)O)C(=O)O` as the compound, how does the inhibition (Homo sapiens) read?
Answer: The inhibition was “inactive”.

Question: With `CC(O)C(C)O` (stereo unspecified) as the compound, how does the inhibition (Egl nine homolog 1 [10]) read?
Answer: The inhibition was “inactive”.

Question: Which inhibition (Egl nine homolog 1 [10]) does the source give for `CCOC(=O)c1ccc(O)c(O)c1` here?
Answer: The inhibition was “inactive”.

Question: Which inhibition (Egl nine homolog 1 [10]) does the source give for `O=C(O)c1ccc(O)c(O)c1` here?
Answer: Its inhibition is “inactive”.

Question: With `O=C(O)/C=C/C(=O)O` [FUMARIC ACID] as the compound, how does the pIC50 (Egl nine homolog 1 [1]) read?
Answer: Its pIC50 is 3.66.

Question: And the pKd (Egl nine homolog 1 [2])?
Answer: The pKd was 3.70.

Question: For `O=C(O)/C=C/c1ccc(O)c(O)c1`, which inhibition (Egl nine homolog 1 [10]) is on record?
Answer: Its inhibition is “inactive”.
